# Measurements taken from patent publication US12622968B2, “Formulation for oral delivery of proteins, peptides and small molecules with poor permeability” (R.P. Scherer Technologies, LLC, priority 2019, dated 2026).
# Like-named read-outs stand apart in the source and are kept apart here.
# Experiment: Single dose oral capsule pharmacokinetics of BHV-3500 in dogs (plasma LC-MS/MS)
# Assay type: in vivo, beagle dogs
# Conditions: female, beagle, dog, plasma; for Tmax: read-out: Tmax; for concentration at 1 h: 1 h post-dose; for concentration at 1 h / concentration at 2 h / concentration at 4 h: read-out: BHV-3500 Concentration in Dog Plasma; for concentration at 2 h: 2 h post-dose; for Cmax: read-out: Cmax; for concentration at 4 h: 4 h post-dose; for AUC(0-t): read-out: AUC0-4 hr
# Experimental: The pharmacokinetics (PK) of BHV-3500 after a single oral capsule of BHV-3500 in dogs were investigated.
# After each dose, blood samples (approximately 3 mL from the jugular vein) for determination of plasma levels of BHV-3500 were obtained from of each dog at six time points (pre-dose; 15, 30, and 60 minutes and 2 and 4 hours post-dose. EDTA was used as the anticoagulant. Plasma samples were frozen at approximately −70′C until analyzed.
# For the determination of BHV-3500 in plasma, a 50 μL aliquot from each sample was transferred into the appropriate well of a 96-well plate to which 10 μL of 50% acetonitrile (ACN) in water was added, followed by 250 μL of internal standard solution (10 ng/mL BHV-3500-d8 in ACN). After sealing the plate and vortexing for approximately 5 minutes, the plate was centrifuged at 4,000 rpm for 10 minutes at 4±4° C. A portion (100 μL) of the resulting supernatant was transferred to into the appropriate well (containing 300 μL 0.15% formic acid in water) of another 96-well plate. This plate was sealed and its contents mixed prior to instrumental analysis.
# Freshly prepared BHV-3500 standard curves and QC samples were analyzed along with the study samples. Instrument calibrators were prepared by adding 10 μL of a stock BHV-3500 solution to 50 μL of blank dog plasma. Blank dog plasma was sourced from BioIVT (Hicksville, NY) and stored frozen at −20° C. Nominal calibrator concentrations ranged from 2.00 to 200 ng/mL. QC samples were prepared at concentrations of 6.00, 50.0 and 150 ng/mL. Calibrators and QC samples were processed for analysis following the extraction procedure described above.
# Calibrator, QC and study samples were analyzed under LC-S/MS instrument conditions detailed in Table 7.
# Calibration curves were calculated from the linear regression (weighting factor of 1/x2) of the analyte to internal standard peak area ratios versus the analyte concentrations. Concentrations of analyte in the samples were determined using the peak area ratios and the regression parameters of the calibration curves.
# Individual animal plasma BHV-3500 concentration data at scheduled (nominal) sampling times were analyzed using the non-compartmental model f r extravascular administration with Phoenix WinNonlin software (Version 8.1; Certara, Princeton, NJ).
# Elimination rate constant values (λz) were calculated by log-linear regression on data points of the terminal phase (using Phoenix WinNonlin's Best Fit Lambda Z Calculation Method option) when allowed by the data; the plasma elimination half-life (t1/2) was calculated as ln(2)/λz. Area under the plasma concentration-time curve values from time zero to the concentration at the 4 hour time point (AUC0-4 hr) were calculated by the linear-up/log-down trapezoidal rule.
# Nominal dose levels were used for PK analysis. The PK parameters listed below were evaluated (as applicable and when allowed by the data). • Elimination half-life (t1/2) • Time of occurrence of maximum plasma concentration (Tmax) • Maximum plasma concentration (Cmax) • Area under plasma concentration-time curve [0 to the 4 hour time point; AUC0-4hr]
# [1] = po, 50 mg, Group 4, oral capsule, 50 mg BHV-3500, no vehicle, average
# [2] = po, 50 mg, Group 4, oral capsule, 50 mg BHV-3500, no vehicle, individual dogs
# [3] = po, 50 mg, Group 5, oral capsule, 50 mg BHV-3500 in 900 mg vehicle of Formulation 2 (SEDDS excipients), average
# [4] = po, 50 mg, Group 6, oral capsule, 50 mg BHV-3500 in 25 mg DDM, average
# [5] = po, 50 mg, Group 6, oral capsule, 50 mg BHV-3500 in 25 mg DDM, individual dogs
# [6] = Group 2, oral capsule, 20 mg BHV-3500 in 900 mg vehicle of Formulation 2 (SEDDS excipients), individual dogs
smiles,measurement,setting,value
"Cc1cc(C[C@@H](NC(=O)N2CCC(c3cc4ccccc4[nH]c3=O)CC2)C(=O)N2CCN(C3CCN(C)CC3)CC2)cc2cn[nH]c12 [BHV-3500, (R)—N-(3-(7-methyl-1H indazol-5-yl)-1-(4-(1-methylpiperidin-4-yl)piperazin-1-yl)-1-oxopropan-2-yl)-4-(2-oxo-1,2 dihydroquinolin-3-yl)piperidine-1-carboxamide]",Tmax,"po, 20 mg, Group 3, oral capsule, 20 mg BHV-3500 in 25 mg DDM, median",2 h
same,concentration at 1 h,[1],3.35 ng/mL
same,concentration at 1 h,[2],2.25 ng/mL
same,concentration at 2 h,[1],6.18 ng/mL
same,concentration at 2 h,[2],7.57 ng/mL
same,Cmax,[1],6.18 ng/mL
same,Cmax,[2],7.57 ng/mL
same,Tmax,[2],2 h
same,Tmax,"po, 50 mg, Group 4, oral capsule, 50 mg BHV-3500, no vehicle, median",2 h
same,concentration at 1 h,[3],11.5 ng/mL
same,concentration at 2 h,[3],40.6 ng/mL
same,concentration at 4 h,[3],7.97 ng/mL
same,AUC(0-t),[3],70.6 ng·h/mL
same,Cmax,[3],40.6 ng/mL
same,Tmax,"po, 50 mg, Group 5, oral capsule, 50 mg BHV-3500 in 900 mg vehicle of Formulation 2 (SEDDS excipients), individual dogs",2 h
same,Tmax,"po, 50 mg, Group 5, oral capsule, 50 mg BHV-3500 in 900 mg vehicle of Formulation 2 (SEDDS excipients), median",2 h
same,concentration at 1 h,[4],2.42 ng/mL
same,concentration at 1 h,[5],2.42 ng/mL
same,concentration at 2 h,[4],6.05 ng/mL
same,concentration at 2 h,[5],6.05 ng/mL
same,concentration at 4 h,[4],8.67 ng/mL
same,concentration at 4 h,[5],12 ng/mL
same,AUC(0-t),[4],17.3 ng·h/mL
same,Cmax,[4],6.59 ng/mL
same,Tmax,"po, 50 mg, Group 6, oral capsule, 50 mg BHV-3500 in 25 mg DDM, median",4 h
same,concentration at 1 h,[6],2.57 ng/mL
same,concentration at 4 h,[6],3.09 ng/mL
same,concentration at 4 h,"Group 6, oral capsule, 50 mg BHV-3500 in 25 mg DDM, individual dogs",5.34 ng/mL
